Laboratory results from patent publication US4973704A, “Pyrrolyl intermediates in the synthesis of pyrrole analogs of mevalonolactone and derivatives thereof” (Sandoz Pharm. Corp., priority 1989, dated 1990).
Like-named read-outs stand apart in the source and are kept apart here.

How the values were obtained:
HMG-CoA reductase = biological target: T1, HMG-CoA reductase (Rattus norvegicus, UniProt P51639); assay: Test A. In Vitro Microsomal Assay of HMG-CoA Reductase Inhibition; format: biochemical
T1 construct: from tissue; host or cells: microsomes (printed)
T1 sequence (P51639 1-887): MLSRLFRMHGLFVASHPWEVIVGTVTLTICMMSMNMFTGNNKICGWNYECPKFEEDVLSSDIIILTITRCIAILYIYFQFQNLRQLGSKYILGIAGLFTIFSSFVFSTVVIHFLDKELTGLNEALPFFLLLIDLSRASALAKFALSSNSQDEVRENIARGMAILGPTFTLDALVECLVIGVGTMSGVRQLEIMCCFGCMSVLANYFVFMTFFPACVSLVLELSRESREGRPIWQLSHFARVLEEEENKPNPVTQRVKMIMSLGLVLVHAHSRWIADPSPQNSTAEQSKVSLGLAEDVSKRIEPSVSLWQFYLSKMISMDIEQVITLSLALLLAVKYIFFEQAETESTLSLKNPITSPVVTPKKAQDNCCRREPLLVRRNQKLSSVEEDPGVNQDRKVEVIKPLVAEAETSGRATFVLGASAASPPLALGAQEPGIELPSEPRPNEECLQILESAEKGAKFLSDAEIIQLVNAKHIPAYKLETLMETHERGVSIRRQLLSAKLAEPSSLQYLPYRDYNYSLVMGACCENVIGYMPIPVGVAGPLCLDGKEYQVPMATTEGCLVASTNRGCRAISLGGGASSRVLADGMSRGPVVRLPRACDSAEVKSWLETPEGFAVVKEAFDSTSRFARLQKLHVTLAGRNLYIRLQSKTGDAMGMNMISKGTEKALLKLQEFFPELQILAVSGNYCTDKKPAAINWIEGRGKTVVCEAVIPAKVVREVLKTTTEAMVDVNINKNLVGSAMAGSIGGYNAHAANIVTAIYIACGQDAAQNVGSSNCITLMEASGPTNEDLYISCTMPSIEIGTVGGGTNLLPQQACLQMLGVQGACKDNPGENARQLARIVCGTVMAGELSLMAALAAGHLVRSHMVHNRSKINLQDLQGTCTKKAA
Experimental: Test A. In Vitro Microsomal Assay of HMG-CoA Reductase Inhibition:
This test is carried out precisely as described in column 53 of U.S. Pat. No. 4,613,610 and on page 30 of World (PCT) Published Patent Application No. 84/02131, both of which are hereby incorporated by reference as if set forth herein in their entirety. The concentration of the test substance (compound of Formula I) in the assay system is 0.0005-2,000 μmolar. The obtained IC50 is the concentration of the test substance in the assay system observed or calculated to produce a 50% inhibition of HMG-CoA reductase activity.

[1] = test system: 3β-hydroxysterol synthesis; assay: Test B. In Vivo Cholesterol Biosynthesis Inhibition Test; conditions: Rattus norvegicus, po; rats, orally administered; read-out: ED50 (dose producing 50% inhibition of 3β-hydroxysterol synthesis)
Experimental: Test B. In Vivo Cholesterol Biosynthesis Inhibition Test:
In this test the rats are orally administered the test substance (compound of Formula I) at a dose of 0.1-200 mg/kg. body weight. The obtained ED50 is the dose of the test substance observed or calculated to produce a 50% inhibition of 3β-hydroxysterol synthesis.

[2] = in vitro microsomal assay, read-out: IC50 (concentration producing 50% inhibition of HMG-CoA reductase activity)

IC50 (HMG-CoA reductase; [2]) [nM]	Structure (SMILES)	ED50 [1] [mg/kg]	IC50 (HMG-CoA reductase) [nM]
14	CC(C)c1cc(-c2ccccc2)n(-c2ccc(F)cc2)c1/C=C/[C@@H](O)C[C@@H](O)CC(=O)O (relative stereo) [Example 2, Sodium (±)-erythro-(E)-3,5-dihydroxy-7-[1'-(4"-fluorophenyl)-3'-(1"-methylethyl)-5'-phenyl-1H-pyrrol-2'-yl]hept-6-enoate]	0.53	
1100	CC[C@H](C)C(=O)O[C@H]1CCC=C2C=C[C@H](C)[C@H](CC[C@@H]3C[C@@H](O)CC(=O)O3)[C@H]21 [Compactin]		
	CC[C@H](C)C(=O)O[C@H]1C[C@@H](C)C=C2C=C[C@H](C)[C@H](CC[C@@H]3C[C@@H](O)CC(=O)O3)[C@H]21 [Mevinolin]		720
